Where a SMILES comes first, the peptide text is derived from it.
How the values were obtained:
[1] = tested on: sluggish-granulating wounds and phlegmon of the maxillofacial zone; assay: Clinical complex treatment of pyo-inflammatory diseases of different localization; format: in vivo; conditions: patients, 1 μkg i.m. every day during ten days
Method: 1 μkg of the preparation was injected intramuscularly, every day during ten days. Effectiveness of the treatment was evaluated in dynamics according to the changes in activity of wound enzymes and time of healing.

white outbred mice = assay: Sub-acute toxicity, daily intramuscular administration for 90 days; format: in vivo; conditions: i.m. daily 0.3, 1, 3 mg/kg for 90 days; doses exceeding therapeutic 100-1000 times
Method: The study of sub-acute toxicity of L-Lys-L-Glu dipeptide is carried out on 60 white outbred mice with body weight […]. The animals of experimental groups were exposed daily to a single administration of the drug intramuscularly for 90 days in doses 1 mg/kg, 0.3 mg/kg, 3 mg/kg in 0.5 ml of sodium chloride solution. The animals of control groups were administered with sodium chloride solution in the same quantity.
During the whole period of Investigation the animals were under daily control. There was monitored animal behavior, as well as chow and water consumption, condition of hairy and mucous surfaces. The animals were weighed weekly. Morphological composition and properties of peripheral blood were studied prior to and an the 30th, 60th, and 90th day of drug administration. Biochemical and coagulologic indices of the blood were studied upon experiment completion.

rats = assay: Chronic toxicity, daily intramuscular administration for 6 months; format: in vivo; conditions: i.m. daily 0.3, 1, 3 mg/kg for 6 months
Method: Chronic toxicity of L-Lys-L-Glu dipeptide obtained by the claimed method was studied during its longitudinal administration to rats with body weight […]. The animals of experimental groups were exposed daily to single intramuscular administration of the substance in doses 1 mg/kg, 0.3 mg/kg, 3 mg/kg in 0.5 ml of sodium chloride solution for 6 months. There was analyzed animal behavior, as well as chow and water consumption, condition of hairy and of mucous surfaces. The animals were weighed daily during the first 3 months of the experiment and then once a month. In 3 months after the onset of administration and upon completion of the experiment hematological and biochemical examinations functions of cardiovascular system, liver, pancreas. kidney, and adrenal gland were conducted and estimated. Upon the termination of the drug administration some animals were exposed to pathomorphological examination with the purpose of studying the state of various departments of the brain and spinal marrow, heart, aorta, lungs, liver, organs of endocrine and immune systems.

[2] = tested on: sluggish-granulating wounds after surgical treatment for cancer; assay: Clinical complex treatment of cancer patients with post-operative complications; format: in vivo
Method: In the pre-operation period, the patients underwent a radical-scheme, radiation therapy employing large fields of complex configuration on the linear electron accelerator (its power is 4,3 Mev) and gamma-therapy device “Rokus-M” in the brake mode. In particular cases, one of the components of the combined treatment was chemotherapy.
Beginning from the third day after the operation, 1 μkg of L-Lys-L-Glu dipeptide was injected intramuscularly daily during 10 days.

[3] = tested on: inflammation of salivary glands and sialolithic disease; assay: Clinical treatment of inflammation of salivary glands and sialolithic disease; format: in vivo, patients; conditions: 1 μkg i.m. daily for 5 days
From the text: 45 patients were being observed. Of these, 27 people had inflammations of the salivary glands, 4 of whom had parotitis. 18 people suffered sialolithic disease of the submandibular gland. The average age of the patients was 35-40. All the patients with the sialolithic disease had the stones extracted. 30 patients (15 of them had inflammation of the salivary gland and the other 15 had sialolithic disease) underwent daily intramuscular injections of L-Lys-L-Glu dipeptide 1 μkg. for 5 days.
The patients of the control group underwent standard treatment: antibacterial, desensitization therapy, iodine-dimexid dressings, physical therapy (ultrasonics, 5-10% potassium iodide electrotherapy on the gland area), local treatment (washing the glands with the solution of antiseptics and antibiotics).

regenerating liver cells = assay: Compensatory regeneration of the liver after partial hepatectomy; format: in vivo, white outbred male rats
Method: The research has been conducted on 26 white outbred male rats weighing 150-200 grams. The animals were divided into thee following groups:
3 group—rats which had undergone the operation and were subsequently (2 and 24 hours after the operation) administered two subcutaneous injections of L-Lys-L-Glu dipeptide (0,1 μkg per rat).
At the same time, the animals of the first and second groups were made injections of the same volume of the […]. The extracted liver was preserved formalin.
The rats, which had been operated on, were killed by means of ether 32 and 96 hours after the operation. The rats from the control group were killed too, simultaneously. Their livers were preserved in formalin. After staining the preparations with hematoxilin-eosin, the mitotic index in the liver cells was defined, as well as the quantity of polyploid cells in the S-phase cell cycle (the quantity of dividing cells).

[4] = patients with sialolithic disease
[5] = 32 hours After partial hepatectomy, 0,1 μkg per rat s.c. at 2 and 24 hours
[6] = 32 hours group, Before (pre-operation index)
[7] = 96 hours After partial hepatectomy, 0,1 μkg per rat s.c. at 2 and 24 hours
[8] = 96 hours group, Before (pre-operation index)

Structure (SMILES): NCCCC[C@H](N)C(=O)N[C@@H](CCC(=O)O)C(=O)O [L-Lys-L-Glu dipeptide, L-lysil-L-glutamic acid] (H-Lys-Glu-OH)
- activity of wound enzymes [1]: increased the activity of wound ferments in the first phase of the wound process
- clearance of the wounds from necrotic tissues [1]: accelerate clearance of the wounds from necrotic tissues
- treatment period [1]: reduction of the treatment period
- side effects, sub-acute toxicity (white outbred mice): absence of side effects
- side effects, chronic toxicity (rats; doses exceeding therapeutic 100-1000 times): absence of side effects
- pathological changes (general state, blood indices, intrinsic organs, cardio-vascular, respiratory, liver and kidney functions) (rats; rats): no pathological changes
- edema and pain in the wound area ([2]; 1 μkg i.m. daily during 10 days from third day after operation): helped to reduce edema and pain in the wound area
- time of treatment ([2]; complex treatment): reduces the time of their treatment
- pains in the gland and discharge of pus ([3]; patients with inflammation of the salivary gland): on the fourth-fifth day after the treatment, stopped having pains in the gland and the discharge of pus from the gland ducts
- discharge of pus from the gland ducts [3, 4]: stopped having the discharge of pus from the gland ducts
- swelling and infiltration of soft tissues and mucous membrane of the mouth cavity [3, 4]: resolved on the third fourth day after the operation
- period of treatment ([3]; patients): shortened the period of treatment
- % of cells in the phase of DNA synthesis (regenerating liver cells; [5]): 3.882 ± 0.8391″ %
- Mitotic index (regenerating liver cells; [5]): 2.314 ± 0.4611 %
- Total number of dividing cells (regenerating liver cells; [5]): 6.196 ± 1.279 %
- increasing number of mitoses, DNA-synthesizing cells and overall amount of dividing cells (regenerating liver cells; 32 hours after partial hepatectomy): does become trustworthy
- % of cells in the phase of DNA synthesis (regenerating liver cells; [6]): 0.870 ± 0.100%
- Total number of dividing cells (regenerating liver cells; [6]): 1.320 ± 0.159%
- Mitotic index (regenerating liver cells; 32 hours group, Before (pre-operation index), % of the total number of liver cells): 0.450 ± 0.067%
- % of cells in the phase of DNA synthesis (regenerating liver cells; [7]): 4.664 ± 1.315 %
- Mitotic index (regenerating liver cells; [7]): 4.846 ± 0.334*& %
- Total number of dividing cells (regenerating liver cells; [7]): 9.510 ± 1.609 %
- number of cells in the S-phase compared to the second (control) group (regenerating liver cells; 96 hours after hepatectomy): did not differ reliably
- number of dividing cells bigger than with rats injected with the sodium hydrochloride (regenerating liver cells; 96 hours after hepatectomy): 75%
- number of mitoses compared to rats injected with the sodium hydrochloride (regenerating liver cells; 96 hours after hepatectomy): twice as big
- % of cells in the phase of DNA synthesis (regenerating liver cells; [8]): 0.982 ± 0.141%
- Mitotic index (regenerating liver cells; [8]): 0.294 ± 0.084%

Reference: patent publication US6642201B1, “Use of a dipeptide for stimulating repair processes” (priority 1998, dated 2003)
